Source: patent US20100160454A1, “ANTIMICROBIAL AGENTS, COMPOSITIONS AND PRODUCTS CONTAINING THE SAME, AND METHODS OF USING THE COMPOSITIONS AND PRODUCTS” (Eastman Chemical Company, priority 2008, published 2010)

Assays:
Test in all cases: Challenge testing against pathogenic fungi, growth rating in broth tubes
Format in all cases: cell-based
Design in all cases: key: 0: No visible growth; 1: Some growth in tube; 2: Moderate growth in tube; 3: Good growth in tube; 4: Extreme growth in tube
[1] = system: Malassezia furfur (ATCC 96809); details: Malassezia furfur
Protocol: (§1) Both Microsporum canis and Trichophyton rubrum were grown on Sabouraud dextrose broth, while Malassezia fufur was grown in Sabouraud dextrose broth supplemented with 2% (v/v) of olive oil and 0.2% (v/v) of Tween™ 80; incubation was at 22°±2° C. under continuous agitation by stirring for 10 days. The organisms were grown to a density of between 1.0×10^3 to 1.0×10^4 cfu/g. The actual inoculation cell density of these challenges were determined by diluting in sterile buffer water and (spread-plate method) plating for enumeration.
(§2) Challenge organisms were used to inoculate tubes of 1,4-CHDM-D90 test concentrations prepared in Sabouraud dextrose broth (or Sabouraud dextrose broth supplemented with olive oil-Tween™ 80 with M. furfur). The inoculations were in the amount of 1.5 mL aliquots of each culture with static incubation at 22±2° C. Subcultures were made at 3-, 14- and 30-day increments. All challenges were conducted in triplicate. In the case of M. canis, the growth response was assessed by the visual presence/absence of growth in the tubes; in the case of T. rubrum, a respiratory (redox) dye (0.2% w/v aqueous INT solution: 2-[4-iodophenyl)-3-4-nitrophenyl]-5-phenyl tetrazolium chloride) was added to the tubes, turning red if the organism was viable; and, finally, in the case of M. furfur, the growth response was assessed based upon pellicle formation in the tubes at the meniscus. The test formulations and challenge test results, as well as 30-day MICs (Minimum Inhibitory Concentration), are in Tables 7-9 for the three organisms using the following growth rating system:
(§3) • 0: No visible growth • 1: Some growth in tube • 2: Moderate growth in tube • 3: Good growth in tube • 4: Extreme growth in tube

[2] = system: Microsporum canis (ATTC 9084); details: Microsporum canis
Protocol: as §1, §2, §3

[3] = system: Trichophyton rubrum (ATCC 10218); details: Trichophyton rubrum
Protocol: as §1, §2, §3

[4] = test concentration 0.5%, 3 days
[5] = test concentration 0.5%, 14 days
[6] = test concentration 0.5%, 30 days
[7] = test concentration 1.25%, 3 days
[8] = test concentration 1.25%, 14 days
[9] = test concentration 1.25%, 30 days
[10] = test concentration 2.5%, 3 days
[11] = test concentration 2.5%, 14 days
[12] = test concentration 2.5%, 30 days

With `OCC1CCC(CO)CC1` (stereo not drawn) [1,4-CHDM-D90, 1,4-cyclohexanedimethanol] the “Growth Rating” value [1, 4] was 0, the “Growth Rating” value [1, 5] was 1 and the “Growth Rating” value [1, 6] was 2. The “Growth Rating” value [1, 7] was 0/0/0, the “Growth Rating” value [1, 8] was 0/0/0 and the “Growth Rating” value [1, 9] was 0/0/0. For the same compound, the “Growth Rating” value [1, 10] was 0/0/0, the “Growth Rating” value [1, 11] was 0/0/0 and the “Growth Rating” value [1, 12] was 0/0/0. For the same compound, the “Growth Rating” value ([1]; test concentration 5%, 3 days) was 0/0/0, the “Growth Rating” value ([1]; test concentration 5%, 14 days) was 0/0/0 and the “Growth Rating” value ([1]; test concentration 5%, 30 days) was 0/0/0. The “Growth Rating” value [2, 4] was 2, the “Growth Rating” value [2, 5] was 1 and the “Growth Rating” value [2, 6] was 1. The “Growth Rating” value [2, 7] was 2, the “Growth Rating” value [2, 8] was 1 and the “Growth Rating” value [2, 9] was 1. For the same compound, the “Growth Rating” value [2, 10] was 2, the “Growth Rating” value [2, 11] was 0 and the “Growth Rating” value [2, 12] was 0. For the same compound, the “Growth Rating” value ([2]; test concentration 5%, 3 days) was 0/0/0, the “Growth Rating” value ([2]; test concentration 5%, 14 days) was 0/0/0 and the “Growth Rating” value ([2]; test concentration 5%, 30 days) was 0/0/0. The “Growth Rating” value [3, 4] was 1/1/1, the “Growth Rating” value [3, 5] was 1/1/1 and the “Growth Rating” value [3, 6] was 1/1/1. The “Growth Rating” value [3, 7] was 0/0/0, the “Growth Rating” value [3, 8] was 0/0/0 and the “Growth Rating” value [3, 9] was 0/0/0. For the same compound, the “Growth Rating” value [3, 10] was 0/0/0, the “Growth Rating” value [3, 11] was 0/0/0 and the “Growth Rating” value [3, 12] was 0/0/0. The “Growth Rating” value ([3]; test concentration 5%, 3 days) was 1, the “Growth Rating” value ([3]; test concentration 5%, 14 days) was 0 and the “Growth Rating” value ([3]; test concentration 5%, 30 days) was 0.
